Patent publication US20240368173A1, “TRICYCLIC GPR65 MODULATORS” (PATHIOS THERAPEUTICS LIMITED, priority 2021, published 2024)

Biological target: human recombinant GPR65 (Homo sapiens, UniProt Q8IYL9)
Assay: Human GPR65 cAMP HTRF antagonist assay
Format: cell-based
Details: not given
How it was run: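 Antagonism measured as suppression of the cAMP rise when pH is dropped to 7.2 (control wells pH 7.9) in 1321N1 cells stably carrying human GPR65. Cells in KRH with 1 mM IBMX and 200 μM EDTA saw compound 30 min, then acid stimulation 30 min; HTRF cAMP detection, normalised, 4-parameter logistic IC50.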

Chain of human recombinant GPR65 (Q8IYL9 whole entry): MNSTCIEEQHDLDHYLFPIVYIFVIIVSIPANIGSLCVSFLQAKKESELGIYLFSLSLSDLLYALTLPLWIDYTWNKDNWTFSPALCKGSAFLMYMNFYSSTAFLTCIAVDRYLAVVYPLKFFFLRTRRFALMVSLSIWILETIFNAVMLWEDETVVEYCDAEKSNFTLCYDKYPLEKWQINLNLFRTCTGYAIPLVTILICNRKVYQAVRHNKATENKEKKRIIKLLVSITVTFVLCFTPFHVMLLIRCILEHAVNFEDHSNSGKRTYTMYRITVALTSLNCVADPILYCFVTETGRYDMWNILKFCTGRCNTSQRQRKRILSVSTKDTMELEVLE

SMILES	IC50
C[C@@]12CC[C@@H](Cc3c1ccnc3F)N2C(=O)Nc1cc(Cl)c(Cl)cc1F [Compound 103, (5R,8S)-N-(4,5-Dichloro-2-fluorophenyl)-1-fluoro-5-methyl-6,7,8,9-tetrahydro-5H-5,8-epiminocyclohepta[c]pyridine-10-carboxamide]	< 500 nM
O=C(Nc1cc(Cl)c(-c2cc(F)cnc2F)cc1F)N1[C@H]2CC[C@@H]1c1c[nH]c(=O)cc1C2 [Compound 252, (6S,9R)-N-(5-Chloro-4-(2,5-difluoropyridin-3-yl)-2-fluorophenyl)-3-oxo-3,5,6,7,8,9-hexahydro-2H-6,9-epiminocyclohepta[c]pyridine-10-carboxamide]	< 500 nM
O=C(Nc1cc(Cl)c(-c2cccc3nonc23)cc1F)N1[C@H]2CC[C@@H]1c1n[nH]c(=O)cc1C2 [Compound 210, (6S,9R)-N-(4-(Benzo[c][1,2,5]oxadiazol-4-yl)-5-chloro-2-fluorophenyl)-3-oxo-3,5,6,7,8,9-hexahydro-2H-6,9-epiminocyclohepta[c]pyridazine-10-carboxamide]	< 500 nM
O=C(Nc1cc(Cl)c(-c2cnc3nonc3c2)cc1F)N1[C@H]2CC[C@@H]1c1n[nH]c(=O)cc1C2 [Compound 165, (6S,9R)-N-(4-([1,2,5]Oxadiazolo[3,4-b]pyridine-6-yl)-5-chloro-2-fluorophenyl)-3-oxo-3,5,6,7,8,9-hexahydro-2H-6,9-epiminocyclohepta[c]pyridazine-10-carboxamide]	< 500 nM
O=C(Nc1cc(Cl)c(-c2ccc(F)nc2)cc1F)N1[C@H]2CC[C@@H]1c1ccnc(F)c1C2 [Compound 169, (5R,8S)-N-(5-Chloro-2-fluoro-4-(6-fluoropyridin-3-yl)phenyl)-1-fluoro-6,7,8,9-tetrahydro-5H-5,8-epiminocyclohepta[c]pyridine-10-carboxamide]	< 500 nM
O=C(Nc1cc(Cl)c(-c2ccc3nsnc3c2)cc1F)N1[C@H]2CC[C@@H]1c1n[nH]c(=O)cc1C2 [Compound 168, (6S,9R)-N-(4-(Benzo[c][1,2,5]thiadiazol-5-yl)-5-chloro-2-fluorophenyl)-3-oxo-3,5,6,7,8,9-hexahydro-2H-6,9-epiminocyclohepta[c]pyridazine-10-carboxamide]	< 500 nM
O=C(Nc1ccc(C(F)(F)F)c(Br)c1)N1[C@@H]2CC[C@H]1c1n[nH]c(=O)cc1C2 [Compound 30, (6R,9S)-N-(3-Bromo-4-(trifluoromethyl)phenyl)-3-oxo-3,5,6,7,8,9-hexahydro-2H-6,9-epiminocyclohepta[c]pyridazine-10-carboxamide]	> 5000 nM
O=C(Nc1cc(Cl)c(-c2ccc3nonc3c2)cc1F)N1[C@H]2CC[C@@H]1c1ccnc(F)c1C2 [Compound 162, (5R,8S)-N-(4-(Benzo[c][1,2,5]oxadiazol-5-yl)-5-chloro-2-fluorophenyl)-1-fluoro-6,7,8,9-tetrahydro-5H-5,8-epiminocyclohepta[c]pyridine-10-carboxamide]	< 500 nM
O=C(Nc1cc(Cl)c(-c2ccc(OC(F)F)nc2)cc1F)N1[C@H]2CC[C@@H]1c1ccnc(F)c1C2 [Compound 324, (5R,8S)-N-(5-Chloro-4-(6-(difluoromethoxy)pyridin-3-yl)-2-fluorophenyl)-1-fluoro-6,7,8,9-tetrahydro-5H-5,8-epiminocyclohepta[c]pyridine-10-carboxamide]	< 500 nM
CS(=O)(=O)c1ccc(-c2cc(F)c(NC(=O)N3[C@H]4CC[C@@H]3c3n[nH]c(=O)cc3C4)cc2Cl)cc1 [Compound 131, (6S,9R)-N-(2-Chloro-5-fluoro-4′-(methylsulfonyl)-[1,1′-biphenyl]-4-yl)-3-oxo-3,5,6,7,8,9-hexahydro-2H-6,9-epiminocyclohepta[c]pyridazine-10-carboxamide]	< 500 nM
O=C1Cc2ccc(-c3cc(F)c(NC(=O)N4[C@H]5CC[C@@H]4c4n[nH]c(=O)cc4C5)cc3Cl)cc2N1 [Compound 153, (6S,9R)-N-(5-Chloro-2-fluoro-4-(2-oxoindolin-6-yl)phenyl)-3-oxo-3,5,6,7,8,9-hexahydro-2H-6,9-epiminocyclohepta[c]pyridazine-10-carboxamide]	< 500 nM
O=C(Nc1cc(Cl)c(-c2ccc3nonc3c2)cc1F)N1[C@@H]2CC[C@H]1C(F)(F)c1c2ccnc1F [Compound 330, (5R,8S)-N-(4-(Benzo[c][1,2,5]-oxadiazol-5-yl)-5-chloro-2-fluorophenyl)-1,9,9-trifluoro-6,7,8,9-tetrahydro-5H-5,8-epiminocyclohepta[c]pyridine-10-carboxamide]	< 500 nM
COc1ncc(-c2cc(F)c(NC(=O)N3[C@H]4CC[C@@H]3c3n[nH]c(=O)cc3C4)cc2Cl)cn1 [Compound 281, (6S,9R)-N-(5-Chloro-2-fluoro-4-(2-methoxypyrimidin-5-yl)phenyl)-3-oxo-3,5,6,7,8,9-hexahydro-2H-6,9-epiminocyclohepta[c]pyridazine-10-carboxamide]	< 500 nM
O=C(Nc1cc(Cl)c(OC2CCC2)cc1F)N1C2CCC1c1n[nH]c(=O)cc1C2 (racemic) [Compound 51, (±)-N-(5-Chloro-4-cyclobutoxy-2-fluorophenyl)-3-oxo-3,5,6,7,8,9-hexahydro-2H-6,9-epiminocyclohepta[c]pyridazine-10-carboxamide]	< 500 nM
O=C(Nc1cc(Cl)c(Cl)cc1F)N1[C@H]2CC[C@@H]1c1c(O)cnc(F)c1C2 [Compound 104, (5R,8S)—N-(4,5-Dichloro-2-fluorophenyl)-1-fluoro-4-hydroxy-6,7,8,9-tetrahydro-5H-5,8-epiminocyclohepta[c]pyridine-10-carboxamide]	< 500 nM
O=C(Nc1cc(Br)c(Cl)cc1F)N1[C@H]2CC[C@@H]1c1n[nH]c(=O)cc1C2 [Compound 37, (6S,9R)-N-(5-Bromo-4-chloro-2-fluorophenyl)-3-oxo-3,5,6,7,8,9-hexahydro-2H-6,9-epiminocyclohepta[c]pyridazine-10-carboxamide]	< 500 nM
O=C(Nc1cc(Cl)c(-c2cnn(CC3CC3)c2)cc1F)N1[C@H]2CC[C@@H]1c1n[nH]c(=O)cc1C2 [Compound 144, (6S,9R)-N-(5-Chloro-4-(1-(cyclopropylmethyl)-1H-pyrazol-4-yl)-2-fluorophenyl)-3-oxo-3,5,6,7,8,9-hexahydro-2H-6,9-epiminocyclohepta[c]pyridazine-10-carboxamide]	< 500 nM
CC(C)Oc1ccc(-c2cc(F)c(NC(=O)N3[C@H]4CC[C@@H]3c3c[nH]c(=O)cc3C4)cc2Cl)cn1 [Compound 273, (6S,9R)-N-(5-Chloro-2-fluoro-4-(6-isopropoxypyridin-3-yl)phenyl)-3-oxo-3,5,6,7,8,9-hexahydro-2H-6,9-epiminocyclohepta[c]pyridine-10-carboxamide]	< 500 nM
COc1cncc(-c2cc(F)c(NC(=O)N3[C@H]4CC[C@@H]3c3n[nH]c(=O)cc3C4)cc2Cl)c1 [Compound 114, (6S,9R)—N-(5-Chloro-2-fluoro-4-(5-methoxypyridin-3-yl)phenyl)-3-oxo-3,5,6,7,8,9-hexahydro-2H-6,9-epiminocyclohepta[c]pyridazine-10-carboxamide]	< 500 nM
O=C(Nc1cc(Cl)c(-c2ccc(C(F)(F)F)nc2)cc1F)N1[C@H]2CC[C@@H]1c1c[nH]c(=O)cc1C2 [Compound 312, (6S,9R)-N-(5-Chloro-2-fluoro-4-(6-(trifluoromethyl)pyridin-3-yl)phenyl)-3-oxo-3,5,6,7,8,9-hexahydro-2H-6,9-epiminocyclohepta[c]pyridine-10-carboxamide]	< 500 nM
O=C(Nc1cc(Cl)c(-c2ccnc(OCC(F)(F)F)c2)cc1F)N1[C@H]2CC[C@@H]1c1c[nH]c(=O)cc1C2 [Compound 309, (6S,9R)-N-(5-Chloro-2-fluoro-4-(2-(2,2,2-trifluoroethoxy)pyridin-4-yl)phenyl)-3-oxo-3,5,6,7,8,9-hexahydro-2H-6,9-epiminocyclohepta[c]pyridine-10-carboxamide]	< 500 nM
COc1ccc(-c2cc(F)c(NC(=O)N3[C@H]4CC[C@@H]3c3c[nH]c(=O)cc3C4)cc2Cl)cn1 [Compound 184, (6S,9R)-N-(5-Chloro-2-fluoro-4-(6-methoxypyridin-3-yl)phenyl)-3-oxo-3,5,6,7,8,9-hexahydro-2H-6,9-epiminocyclohepta[c]pyridine-10-carboxamide]	< 500 nM
N#Cc1nccc2c1C[C@@H]1CC[C@H]2N1C(=O)Nc1cc(Cl)c(Cl)cc1F [Compound 92, (5R,8S)-1-Cyano-N-(4,5-dichloro-2-fluorophenyl)-6,7,8,9-tetrahydro-5H-5,8-epiminocyclohepta[c]pyridine-10-carboxamide]	< 500 nM

Same assay, conditions: 1321N1-hrGPR65 cells, cAMP HTRF, assay pH 7.2; read-out: hGPR65 IC50 (Activity of selected compounds according to the invention)

SMILES	IC50
O=C(Nc1ccc(Cl)c(Br)c1)N1[C@@H]2CC[C@H]1c1n[nH]c(=O)cc1C2 [Compound 50, (6R,9S)-N-(3-Bromo-4-chlorophenyl)-3-oxo-3,5,6,7,8,9-hexahydro-2H-6,9-epiminocyclohepta[c]pyridazine-10-carboxamide]	> 5000 nM
O=C(Nc1cc(Cl)c(Cl)cc1F)N1C2CCC1c1ncc(=O)[nH]c1C2 (racemic) [Compound 158, (±)—N-(4,5-Dichloro-2-fluorophenyl)-2-oxo-2,5,6,7,8,9-hexahydro-1H-5,8-epiminocyclohepta[b]pyrazine-10-carboxamide]	> 5000 nM
COc1ccc2c(n1)C[C@@H]1CC[C@H]2N1C(=O)Nc1cc(Cl)c(Cl)cc1F [Compound 54, (5R,8S)-N-(4,5-Dichloro-2-fluorophenyl)-2-methoxy-6,7,8,9-tetrahydro-5H-5,8-epiminocyclohepta[b]pyridine-10-carboxamide]	> 5000 nM
O=C(Nc1cc(I)c(Cl)cc1F)N1[C@H]2CC[C@@H]1c1ccnc(F)c1C2 [Compound 78, (5R,8S)-N-(4-Chloro-2-fluoro-5-iodophenyl)-1-fluoro-6,7,8,9-tetrahydro-5H-5,8-epiminocyclohepta[c]pyridine-10-carboxamide]	500 to 5000 nM
O=C(Nc1ccc(N2CC3CCC(C2)O3)cc1)N1[C@H]2CC[C@@H]1c1ccnc(F)c1C2 [Compound 62, (5R,8S)-N-(4-(8-Oxa-3-azabicyclo[3.2.1]octan-3-yl)phenyl)-1-fluoro-6,7,8,9-tetrahydro-5H-5,8-epiminocyclohepta[c]pyridine-10-carboxamide]	> 5000 nM
